Experimental data taken from patent US11135185B2, “Uses of curcumin derivative” (Merry Life Biomedical Company, Ltd., priority 2018, dated 2021).
Entries after “also recorded” stand apart in the source; their conditions may differ.

Columns and labels:
ApoE = experiment: Western blotting of ApoE in Huh-7 cells; assay type: cell-based, human; conditions: 24 h treatment, Western blotting (FIG. 1)
Method: (§1) The human hepatoma Huh-7 cell lines were obtained from the Health Science Research Resources Bank (JCRB0403; Osaka, Japan) and were cultured in Dulbecco's modified Eagle's medium (DMEM, Gibco) supplemented with 100 U/ml penicillin, […] streptomycin and 10% fetal bovine serum (FBS, Biological industry). Cells were cultured at 37° C. in a humidified atmosphere of 5% CO2 incubator (Forma Scientific, Marietta, Ohio, USA). The cells were seeded in 24-well, 6 or 10 cm dishes overnight the day before the experiment. On the next day, the cells were treated with curcumin (Sigma) and TML-6. The stock concentration was prepared at 5 mg/mL (for curcumin) and 10 mM (for TML-6).
(§2) After cells were seeded and treated with curcumin and its derivatives for 24h, cells were washed with ice-cold PBS and lysed with 100 μL of RIPA lysis buffer (Pierce Biotechnology, Rockford, Ill., USA) supplemented with protease and phosphatase inhibitors (Roche Diagnostics, Mannheim, Germany). Cell lysates were further cleaned by centrifugation at 14000 rpm 4° C. for 15 min. Protein concentration was determined using a Bradford assay (Bio-Rad, Hercules, Calif., USA). For western blot analysis, 20 μg of each sample was prepared for SDS-PAGE and denatured at 95° C. for 10 min. […]

ApoE promoter = ApoE promoter luciferase reporter assay in Huh-7 cells; assay type: cell-based, human; conditions: for luciferase activity of ApoE promoter: Huh-7, serial truncations of ApoE promoter from -1061/+45 to -154/+45, 24 h (FIG. 3C)
From the text: The promoter region of human APOE gene has been identified and published [[…]]. We constructed ApoE promoter region from -1061 +45 in two-steps. The first fragment was amplified using polymerase chain reaction (PCR) by forward primer APOE-[…] ID NO: 1) paired with reverse primer APOE-R-BglII: [NT] ID NO: 2) and was ligated to the pGL3 basic vector (Promega, Madison, Wis., USA) by using Kpn I and Bgl II restriction sites. The second fragment was amplified using PCR by forward primer APOE-F-BglII: [NT] ID NO: 3) paired with reverse primer APOE-[…] ID NO: 4) and was ligated to the pGL3-basic (Promega) by using Bgl II and Hind III restriction sites. The serial deletion mutants of ApoE promoter, -705/+45, -456/+45, -344/+45, -247/+45, -154/+45 and -32/+45 were amplified using PCR and based on the full-length ApoE promoter (-1061/+45). The generated fragments were digested by Kpn I and Xba I and then inserted into the pGL3-basic vector (Promega). To generate the deletion mutants of ApoE promoter, primers were used to amplify the promoter for different lengths. The forward primers were APOE-705-[…] ID NO: 5), APOE-456-[…] ID NO: 6), APOE-344-[…] ID NO: 7), APOE-247-[…] ID NO: 8), APOE-154-[…] ID NO: 9), and APOE-32-[…] ID NO: 10) which were paired with reverse primer APOE-[…] ID NO: 4) to amplify the target region of the promoter. For disrupting the binding sites of PPAR and/or AP-2 on ApoE promoter, we conducted the point mutation method and the primers paired used were as follows: -154[…] ID NO: 11) paired with -154[…] ID NO: 12), -154[…] ID NO: 13) paired with -154[…] ID NO: 14), -154[…] ID NO: 15) paired with -154[…] ID NO: 16), -154[…] ID NO: 17) paired with -154[…] ID NO: 18). The pGL3-154/+45-ApoE-Luc was used as the template for PCR reaction to amplify the mutant of PPAR or AP-2 binding sites in the ApoE promoter. The PCR products were digested by Dpn I and transformed into TOP10 competent cells (Invitrogen, Carlsbad, Calif., USA). After LB plating and extraction of plasmids, positive colonies were confirmed by restriction enzyme digestion. All of the promoter constructs were verified by sequencing. The Huh-7 cells were seeded in 24-well culture plates and then co-transfected with serial deletion of pGL3-ApoE-Luc (firefly luciferase) with pRL-TK renilla luciferase reporter. Following overnight incubation, the transfected cells were treated with traditional curcumin, and TML-6 for an additional 24h. […] The relative luciferase units (RLU) were measured using a luminometer (GLOMAX Multi, Promega). […] The RLUs are expressed as means plus standard deviation of three independent experiments.

APP = experiment: Western blotting of APP in Huh-7 cells; assay type: cell-based, human; conditions: 24 h treatment, Western blotting (FIG. 1)
Method: The human hepatoma Huh-7 cell lines were obtained from the Health Science Research Resources Bank (JCRB0403; Osaka, Japan) and were cultured in Dulbecco's modified Eagle's medium (DMEM, Gibco) supplemented with 100 U/ml penicillin, 100 mg/ml streptomycin and 10% fetal bovine serum (FBS, Biological industry). Cells were cultured at 37° C. in a humidified atmosphere of 5% CO2 incubator (Forma Scientific, Marietta, Ohio, USA). The cells were seeded in 24-well, 6 or 10 cm dishes overnight the day before the experiment.
After cells were seeded and treated with curcumin and its derivatives for 24h, cells were washed with ice-cold PBS and lysed with 100 μL of RIPA lysis buffer (Pierce Biotechnology, Rockford, Ill., USA) supplemented with protease and phosphatase inhibitors (Roche Diagnostics, Mannheim, Germany). Cell lysates were further cleaned by centrifugation at 14000 rpm 4° C. for 15 min. Protein concentration was determined using a Bradford assay (Bio-Rad, Hercules, Calif., USA). For western blot analysis, 20 μg of each sample was prepared for SDS-PAGE and denatured at 95° C. for 10 min. The prepared samples from total lysates were loaded and separated by SDS-PAGE (8% or 10%), and then transferred to PVDF membranes (pore size 0.45 μm; PerkinElmer) by semi-dry transfer cell (Bio-Rad). […]

phospho-NF-κB = experiment: Western blotting of phospho-NF-κB in Huh-7 cells; assay type: cell-based, human; conditions: 24 h treatment, Western blotting (FIG. 1)
Method: as §1, §2

soluble Aβ = conditions: AD transgenic mouse, within hours, ApoE-dependent; cited from earlier work
[1] = system: Iba-1 (microglial activation biomarker) in 3×Tg AD transgenic mice; experiment: Iba-1 immunofluorescence staining in 3×Tg-AD transgenic mice; assay type: in vivo; conditions: six-month-old 3×Tg AD mice fed 150 mg/kg for four months, compared to curcumin (FIG. 5)
From the text: (§3) Triple-transgenic mice as a model of Alzheimer's disease (3×Tg-AD, APP Swedish, MAPT P301L, and PSEN1 M146V) were bred at the laboratory animal center of National Cheng Kung University (NCKU) [Oddo S, Caccamo A, Shepherd J D, Murphy M P, Golde T E, Kayed R, Metherate R, Mattson M P, Akbari Y, LaFerla F M: Triple-transgenic model of Alzheimer's disease with plaques and tangles: intracellular Abeta and synaptic dysfunction. Neuron 2003, 39(3):409-421]. Experimental procedures for handling the mice were in accordance with the guidelines of the Institutional Animal Care and Use Committee (IACUC) of NCKU. The mice were housed in a room maintained on a 12-h light-dark cycle and fed ad libitum. […] These mice developed plaque and tangle pathology. Aβ deposition as progressive deposition appeared as early as six months.
(§4) Mice were anesthetized and euthanized with 10% chloral hydrate (400 mg/kg, i.p.) and then transcardial perfusion was performed with 0.01 M PBS (pH 7.4). The brains were post-fixed in 4% PFA for 2 days and dehydrated with 30% sucrose at 4° C. The hydrated brain was embedded with optimal cutting temperature compound (OCT, Leica) and quick-frozen at −30° C. The blocks were sectioned at 16 um-thick. Slices were stored at −20° C. […] The images were captured by TissureFAXS microscopy system and positive signals were quantified by TissueQuest software module (TissueGnostic, Vienne, Austria).

[2] = system: Aβ levels in the brain of 3×Tg AD transgenic mice; experiment: Aβ immunofluorescence staining of brain sections of 3×Tg-AD transgenic mice; assay type: in vivo; conditions: six-month-old 3×Tg AD mice fed 150 mg/kg for four months, immunofluorescence (FIG. 4)
From the text: as §3, §4

[3] = system: Aβ production in N2a/APPswe cells; experiment: Amyloid β ELISA of culture medium of N2a/APPswe stable cell line; assay type: cell-based; conditions: 24 h incubation, ELISA (FIG. 2)
Method: Extracellular levels of soluble Aβ40 and Aβ42 were determined by LEGEND MAX™ 3-Amyloid x-40 and X-42 ELISA Kit (Biolegend). N2A neuroblastoma cell line with stably over expressing APP Swedish mutation (APPswe) was designed as N2A/APPswe cell line (kindly grafted from Prof. Kuo, Yu-Min's Lab). 8×10^5 N2A/APPswe cells were seeded on a 6-cm dish. After overnight incubation, the cells were treated with curcumin or TML-6 for 24 h. The culture supernatant was collected and centrifuged at 1,500×g at 4° C. for 5 min to remove cells. The Aβ levels of the culture supernatants of various treatments were assayed according to the manufacture's instrumentations. The samples were detected at OD620 and the calculation of Aβ levels was based on the standard curves of Aβ40 and Aβ42, respectively.

SMILES	protein expression level of Apo E (ApoE)	luciferase activity of ApoE promoter (ApoE promoter)	protein expression level of APP (APP)	protein expression level of phospho-NF-κB (phospho-NF-κB)	clearance of soluble Aβ (soluble Aβ)	expression of Iba-1 (brain inflammation) [1]	ApoE promoter activity after disruption of proximal PPARα/RXRα and AP2 binding sites (ApoE promoter; Huh-7, -154/+45 mutants MdelAP2 and MdelPPAR, 24 h (FIG. 3E))	promoter activity of ApoE-154MdelAP2/+45 mutant compared with wild-type -154/+45 (ApoE promoter; Huh-7, siRNA knockdown experiment, 24 h (FIG. 3F))	Aβ levels in the brain [2]	Aβ42/40 ratio [3]	production of Aβ40 [3]	production of Aβ42 [3]
COc1cc(/C=C/C(=O)CC(=O)/C=C/c2ccc(O)c(OC)c2)ccc1O [curcumin, diferuloyl methane]	upregulate ApoE	gradually increases	inhibit the APP synthesis	inhibit NFκB	–	–	–	–	–	–	–	–
C=C(c1ccc(C(=O)O)cc1)c1cc2c(cc1C)C(C)(C)CCC2(C)C [bexarotene]	–	–	–	–	enhanced clearance	–	–	–	–	–	–	–
CCN(CC)C(=O)CC(C)(C(=O)/C=C/c1ccc(OC)c(OC)c1)C(=O)/C=C/c1ccc(OC)c(OC)c1 [TML-6]	significantly increased	gradually increases	decreased in a dose-dependent manner	decreased in a dose-dependent manner	–	significantly better activity than curcumin; also recorded: significantly inhibited	significantly suppressed	suppressed	significantly better activity than curcumin; also recorded: significantly decrease	significantly suppresses	significantly suppresses	significantly suppresses
